Data reported in PubChem BioAssay (NCI).
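Protocol summary: plate cells (96-well), add compound at 5 concentrations, incubate 48 h, interpolate endpoints linearly. GI50 is the concentration that inhibits growth by half. At the TGI there is no net growth.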 Where a SMILES comes first, the peptide text is derived from it. Bridges are numbered along the chain shown (N, C = ends). Roman numbers before positions name the chains, in order. [ ]: non-standard residue; d: D form. The star is where a group is joined. Heptadecanoyl = CCCCCCCCCCCCCCCCC(=O)*; Phg = N[CH](C(=O)O)c1ccccc1

Columns and labels:
Test in all cases: growth of human tumour cells (NCI), 48 h
HCT-15 colon = system: HCT-15 colon
PC-3 prostate = system: PC-3 prostate
SK-MEL-2 melanoma = system: SK-MEL-2 melanoma
IGROV1 ovarian = system: IGROV1 ovarian
SR leukemia = system: SR leukemia
ACHN renal = system: ACHN renal
786-0 renal = system: 786-0 renal
MDA-N = system: MDA-N
KM12 colon = system: KM12 colon
KM20L2 colon = system: KM20L2 colon
SNB-78 CNS = system: SNB-78 CNS
XF 498 CNS = system: XF 498 CNS
HOP-18 NSCLC = system: HOP-18 NSCLC
DMS 273 small cell lung = system: DMS 273 small cell lung

SMILES	TGI (HCT-15 colon) [µM]	TGI (PC-3 prostate) [µM]	TGI (SK-MEL-2 melanoma) [µM]	TGI (IGROV1 ovarian) [µM]	TGI (SR leukemia) [µM]	TGI (ACHN renal) [µM]	TGI (786-0 renal) [µM]	TGI (MDA-N) [µM]	TGI (KM12 colon) [µM]	GI50 (SK-MEL-2 melanoma) [µM]	GI50 (IGROV1 ovarian) [µM]	TGI (KM20L2 colon) [µM]	TGI (SNB-78 CNS) [µM]	TGI (XF 498 CNS) [µM]	TGI (HOP-18 NSCLC) [µM]	TGI (DMS 273 small cell lung) [µM]	GI50 (ACHN renal) [µM]	GI50 (HCT-15 colon) [µM]	GI50 (PC-3 prostate) [µM]	GI50 (KM12 colon) [µM]
C/C(=C\c1ccc2c(c1)OCO2)[N+](=O)[O-]	5.21	5.9	5.49	5.89	2.39															
C(=N/Nc1ccccn1)/c1cccnc1	> 100	> 100	> 100	> 100		> 100	> 100	> 100	> 100											
CCCCCCCCCCCCCCCCC(=O)N1CCCC1C(=O)NCC(=O)NC(C(=O)N1CCCC1C(=O)NC(CO)C(=O)NC(Cc1ccc(O)cc1)C(=O)NC(CCCCNC(=O)C1CCCN1C(=O)C(CCCCN)NC(=O)C(CCCCN)NC(=O)C(CCCCN)NC(=O)C(CCCNC(=N)N)NC(=O)C(CCCCN)NC(=O)C(N)C(C)C)C(=O)NC(CC(C)C)C(=O)NC(CCCNC(=N)N)C(=O)N1CCCC1C(=O)NCC(N)=O)c1ccccc1 (configuration not stated) (I: Heptadecanoyl-PG[Phg]PSYKLRPG-NH2 / II: H-VKRKKKP; amide I:7-II:C; configuration not given here)			> 100	75.7						50.3	24.8									
CN(C)C(=S)SCc1ccccc1	> 100		> 100	> 100				> 100	> 100											
CCOC(=O)c1cc(Cl)ccc1OC(N)=O	> 100		> 100	> 100					> 100			> 100	> 100	> 100	> 100	> 100				
N#CC(C#N)=Cc1ccc(-c2ccc(-c3nc4ccccc4s3)cc2)s1	40	23.1	> 100	27.1		27.3			78.5	33.1	4.62						13.4	15.5	6.23	19.9
Nc1nc(Cl)nc2c1ncn2C1CCC(CO)O1 (configuration not stated)	> 100	> 100	> 100	> 100	> 100			> 100	> 100											
Cc1cccc(C(O)c2ccccn2)c1O (configuration not stated)	> 100	> 100		> 100	> 100	> 100		> 100	> 100											
